Reference: US6706509B2, “Oncoprotein protein kinase” (The Regents of the University of California, priority 1993, dated 2004)

What was measured:
JNK [1] = experiment: Solid-state phosphorylation assay of JNK in FR3T3, CV-1 and PC12 cells; format: cell-based; settings: for JNK activity, effect of A23187 or CsA treatment: FR3T3, CV-1 and PC12 cells, A23187 1 μg/ml, CsA 100 ng/ml
Procedure: We examined whether elevated intracellular Ca^++ affects JNK activation in other cells. […] Cultures of FR3T3, CV-1, PC12 and mouse thymocytes were incubated for 15 minutes in the presence of TPA (50 ng/ml, T), A23817 (1 μg/ml, A) and/or CsA (100 ng/ml), as indicated. WCE prepared from 2-4×10^5 cells for the established cell lines and 1.5×10^6 cells for primary thymocytes were incubated with GSTcJun(1-223)-GSH agarose beads. After washing, JNK activity was determined by solid-state phosphorylation assay as described above.

JNK [2] = experiment: Solid-state phosphorylation assay of JNK on GSTcJun(1-223)-GSH agarose beads, Jurkat cells; format: cell-based, human; settings: for JNK activation together with suboptimal dose of TPA: A23187, anti-CD3 or anti-CD28 plus suboptimal TPA; for JNK activation, solid-state assay, agent alone: TPA 50 ng/ml or A23187 1 μg/ml, 15 minutes
Procedure: (§1) Exponentially growing cells were stimulated for the indicated times and hypotonic detergent cellular extracts were prepared as described (Hibi, et al., Genes and Dev., supra, 1993). The solid-state phosphorylation assay for measuring JNK activity was performed by incubated extracts with GSTcJun(1-223)-GSH agarose beads as described (Hibi, et al., supra., 1993) and as in Example 2. ERK1 and 2 activity was assayed by an immunecomplex kinase assay using MBP as a substrate (Minden, et al., Nature, 1993).
JNK can be retained on GSTcJun-glutathione (GSH) agarose affinity resin and its kinase activity measured by phosphorylation of GSTcJun. WCE (50 μg) of Jurkat cells treated as described above were incubated with 5 μl of GSH agarose beads coated with 10 μg GST-cJun (1-223) for 12 hours at 4° C. After extensive washing, the beads were incubated in kinase buffer containing γ-^32P-ATP for 20 minutes at 30° C., after which the proteins were dissociated by incubation in SDS sample buffer and separated by SDS-PAGE (FIG. 13B). The 49 kD band corresponds to GST-cJun (1-223). The faster migrating bands are degradation products (Hibi, et al., supra, 1993).
WCE (50 μg) of Jurkat cells treated as described above were incubated with GSTcJun(1-223)-GSH agarose beads and assayed for JNK activity using the solid-state kinase assay. The same WCE (20 μg) were immunoprecipitated with anti-ERK2 antibodies and assayed for MBP-kinase activity.
WCE (50 μg) of Jurkat cells treated as described in Panel A with various stimuli alone or their combinations were incubated with GSTcJun(1-223)-GSH agarose beads and assayed for JNK activity using solid-state kinase assay. The same samples (20 μg) were also assayed for MBP-kinase activity as described in FIG. 16B.

ERK1 and ERK2 = ERK1 and ERK2 immunecomplex kinase assay with MBP substrate, Jurkat cells and mouse thymocytes; format: cell-based, human; mouse
Procedure: as §1
JNK is a proline-directed protein kinase activated by extracellular stimuli (Hibi, et al., supra, 1993). In that respect, it resembles the ERK1 and 2 MAP kinases (Boulton, et al., Cell, 65:663-675, 1991). Since ERK1 and 2 appear to be involved in induction of c-fos (Gille, et al., Nature, 358:414-417, 1992; Marais, et al., Cell, 73:381-393, 1993) and could thereby participate in T cell activation, their regulation was examined. ERK1 and ERK2 activities were measured in both Jurkat and mouse thymocytes using an immunecomplex kinase assay and myelin basic protein (MBP) as a substrate. Recombinant, kinase-defective ERK1 was also used a substrate for assaying MEK, the protein kinase responsible for activation of ERK1 and 2 (Crews, et al., Science, 258:478-480, 1992).
WCE (5 μg) of Jurkat (FIG. 15, panel A) or mouse thymocytes (panel C) were incubated with 1 μg of kinase-defective ERK1 in kinase buffer containing γ-^32P-ATP for 20 minutes. The phosphorylated proteins were separated by SDS-PAGE and the band corresponding to the mutant ERK1 is indicated. WCE (20 μg) of Jurkat (panel B) or mouse thymocytes (panel C) that were treated as described above were immunoprecipitated with anti-ERK antibodies (a gift from Dr. M. Weber). The immune complexes were washed and incubated in kinase buffer containing γ-^32P-ATP and 2 μg MBP for 15 minutes at 30° C. The phosphorylated proteins were separated by SDS-PAGE. The band corresponding to phosphorylated MBP is indicated.

Molecule	JNK activity, effect of A23187 or CsA treatment (JNK [1])	JNK activation together with suboptimal dose of TPA (JNK [2]; Jurkat)	JNK activation, solid-state assay, agent alone (JNK [2]; Jurkat)	ERK activity, effect of A23187 or CsA (ERK1 and ERK2)	further results
CNc1ccc2oc(C[C@H]3O[C@@]4(CC[C@H]3C)O[C@H]([C@H](C)C(=O)c3ccc[nH]3)[C@H](C)C[C@H]4C)nc2c1C(=O)O [A23187]	In none of these cells was JNK activity affected	strong synergistic activation of JNK	had no effect	had no effect on either activity	JNK activation, solid-state assay, costimulation with TPA (JNK [2]; A23187 1 μg/ml plus TPA 50 ng/ml): strongly potentiated
CCCCCCCCCCCCCC(=O)O[C@@H]1[C@@H](C)[C@@]2(O)[C@@H](C=C(CO)C[C@]3(O)C(=O)C(C)=C[C@@H]23)[C@H]2C(C)(C)[C@]12OC(C)=O [TPA]	–	–	activation of JNK	–	JNK activity, TPA alone (JNK [1]; CV1 and FR3T3 cells, TPA 50 ng/ml, 15 minutes): weakly stimulated; JNK activation, suboptimal dose of TPA by itself (JNK [2]; Jurkat): does not lead to JNK activation; ERK activity, TPA treatment (ERK1 and ERK2; Jurkat cells or mouse thymocytes): fully stimulated
anti-CD3: anti-CD3 monoclonal antibody OKT3	–	strong synergistic activation of JNK	–	–	JNK activation, combined treatment with A23187 (JNK [2]; Jurkat, anti-CD3 or anti-CD28 plus A23187): efficiently activated
cyclosporin A [CsA]	In none of these cells was JNK activity affected	–	–	had no effect on either activity	JNK activation, solid-state assay, CsA added to TPA+A23187 (JNK [2]; CsA 100 ng/ml): inhibited; JNK activation by suboptimal TPA+A23187, effect of CsA (JNK [2]; Jurkat): completely inhibited; JNK activation by anti-CD3+anti-CD28, effect of CsA (JNK [2]; Jurkat, CsA 100 ng/ml): partially attenuated this effect
